Laboratory results from patent publication US6809085B1, “Adherent N,O-Carboxymethylchitosan drug delivery devices for moist tissue and methods of their use” (Chitogenics, Inc., priority 1999, dated 2004).
Counter-ions that a name gives are not always drawn. Like-named read-outs stand apart in the source and are kept apart here.

Format: in vitro ADME, rabbit
Description: Previously harvested pieces of rabbit large bowel (surface area 1.767 cm^2) were mounted in an Improved Franz Diffusion Cell containing 0.9% saline (13ml) as the receptor medium. The vaginal cream of Example 3 (1.0 g) was applied directly to the rabbit tissue; the experiments were performed in triplicate.
Aliquots of 1.0 ml (which were replaced with fresh saline solution) were withdrawn from the receptor chamber at 1, 3, 6, 20, 24, 48 hours. LN in samples was quantified using high performance liquid chromatography (Hewlett Packard, model 1090,series II, fitted with Hypersil C18, 5 μm, 25 cm×4.6 mm column, a UV detector set at 241 nm and an acetonitrile(80%)-water(20%) mobile phase).
Accurately weighed portions of the LN-vaginal cream as well as the cream recovered from the diffusion cells were extracted with 20 ml methanol for 16 hr on a wrist-action shaker and analyzed. […] The replicate results along with an average are plotted.
The permeation studies were conducted as described in Example 12 except that the HPLC analysis was modified; a Spectra Physics, Model SP8800, fitted with Alltima phenyl, 5 micron, 15 cm×4.6 mm column, and a UV detector set at 223 nm was used with an acetonitrile (40%)-0.1% phosphoric acid mobile phase. […]

With CC(=O)O.CC(=O)O.NC(=N\CCCCCC/N=C(N)/N=C(\N)Nc1ccc(Cl)cc1)/N=C(\N)Nc1ccc(Cl)cc1 [chlorhexidine diacetate] the “average permeation rate through the mucosal tissue” value was 160.8 μg/cm^2/hr.

With CN(C)CCC(c1ccc(Cl)cc1)c1ccccn1 (stereo not shown) [chlorpheniramine maleate] the “average permeation rate through the mucosal tissue” value (rabbit, 48 h, 5 mg per pellet) was 97.3 μg/cm^2/hr and the “average permeation rate through the mucosal tissue” value (rabbit, 48 h, 10 mg per pellet) was 182 μg/cm^2/hr.

In the case of C#C[C@]1(O)CC[C@H]2[C@@H]3CCC4=CC(=O)CC[C@@H]4[C@H]3CC[C@@]21CC [levonorgestrel], the “concentration of LN in the cream recovered following the permeation study” value is reported as 3.101 ± 0.315 mg/g, the “amount of levonorgestrel released through normal tissue” value (rabbit, 48 h, 3 mg/g) is reported as “less than 0.5%” and the “permeation rate of hormone that diffused through the tissue from the cream” value (rabbit, 48 h, 3 mg/g) is reported as 0.163±0.010 μg/cm^2/hr.

For CC(C)(C)NC[C@H](O)COc1nsnc1N1CCOCC1 [timolol maleate], the “average permeation rate through the mucosal tissue” value (rabbit, 24 h) was 103.8 μg/cm^2/hr.
